Results on five molecules are retold here after ChEMBL document CHEMBL1124693, “Synthesis of the novel pi-(benzyloxymethyl)-protected histidine analogue of statine. Inhibition of penicillopepsin by pepstatin-derived peptides containing different statine side-chain derivatives” (J Med Chem, 1989).

The test system of the first test is Penicillopepsin (Penicillium janthinellum). The test is described as follows: Inhibitory activity against pencillopepsin.
For `CCOC(=O)C[C@H](O)[C@H](Cc1ccccc1)NC(=O)[C@@H](NC(=O)[C@@H](NC(=O)CC(C)C)C(C)C)C(C)C`, the Ki – broadly, the equilibrium dissociation constant of an inhibitor or competing ligand from its target – came to 15 nM.
The same measure, in the same setting: with `CCOC(=O)C[C@H](O)[C@H](CC(C)C)NC(=O)[C@@H](NC(=O)[C@@H](NC(=O)CC(C)C)C(C)C)C(C)C` the figure was 72 nM; with `COC(=O)C[C@H](O)[C@H](Cc1c[nH]cn1)NC(=O)[C@@H](NC(=O)[C@@H](NC(=O)CC(C)C)C(C)C)C(C)C`, 4.5 nM; with `CCOC(=O)C[C@H](O)[C@H](CC(C)C)NC(=O)[C@H](NC(=O)[C@@H](NC(=O)CC(C)C)C(C)C)C(C)C`, over 18000 nM.
`CCOC(=O)C[C@H](O)[C@H](CCCN)NC(=O)[C@@H](NC(=O)[C@@H](NC(=O)CC(C)C)C(C)C)C(C)C` showed a Ki of 1.1 nM.

The test system is the same in a further test. Description: Slow binding kinetics after pre-incubation of enzyme and inhibitor for 10 min before substrate addition;+ indicates weak inhibition of penicillopepsin.
As to `COC(=O)C[C@H](O)[C@H](Cc1c[nH]cn1)NC(=O)[C@@H](NC(=O)[C@@H](NC(=O)CC(C)C)C(C)C)C(C)C`, the Slow binding result was “weak inhibition of porcine pepsin”.
